Measured values: PubChem BioAssay AID434987 (Southern Research Specialized Biocontainment Screening …, 2010)
Activity calls are given as the source filed them. No rule for the calls is given here.

Test system: M. tuberculosis H37Rv growth inhibition with meropenem
Assay: dose response, H37Rv, with and without meropenem (AID 434987);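 also: growth over 7 days at 37 °C before Alamar Blue read on day 9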
[1] = M. tuberculosis H37Rv growth inhibition, measured here: IC50 without meropenem
[2] = M. tuberculosis H37Rv growth inhibition, measured here: IC90 without meropenem
[3] = measured here: IC90 with meropenem

O=S1(=O)CCO[C@H]2Cc3ccccc3[C@H]2N1Cc1ccccc1
IC50: > 100 µM (inactive)
IC50 [1]: > 100 µM
IC90 [2]: > 100 µM
IC90 [3]: > 100 µM

O=C(Nc1ccccc1)Nc1csc2ccccc12
IC50: < 0.2 µM
IC50 [1]: 23.9 µM
IC90 [2]: > 100 µM
IC90 [3]: 20.9 µM

COc1cc(/C=N/NC(=S)Nc2cccc(S(=O)(=O)N(C)C)c2)cc(OC)c1O
IC50: > 100 µM (inactive)
IC50 [1]: > 100 µM
IC90 [2]: > 100 µM
IC90 [3]: > 100 µM

O=C1C(Cl)=C(N2CCCCCC2)C(=O)N1c1ccc(Br)cc1
IC50: 7.59 µM (inactive)
IC50 [1]: 18.3 µM
IC90 [2]: > 100 µM
IC90 [3]: 19.4 µM

Cc1ccc(Sc2c(C(=O)Nc3ccc(F)cc3F)c(C(F)(F)F)nn2C)cc1
IC50: > 100 µM (inactive)
IC50 [1]: > 100 µM
IC90 [2]: > 100 µM
IC90 [3]: > 100 µM

COc1ccccc1NC(=O)c1cnc(Nc2ccccc2OC)c2ccccc12
IC50: 37.2 µM
IC50 [1]: > 100 µM
IC90 [2]: > 100 µM
IC90 [3]: > 100 µM

O=C(N/N=C/c1ccc(OC(=O)c2ccc3c(c2)OCO3)cc1)c1cncc(Br)c1
IC50: 5.48 µM
IC50 [1]: 45.7 µM
IC90 [2]: > 100 µM
IC90 [3]: 48.3 µM

COc1ccc([N+](=O)[O-])cc1NS(=O)(=O)c1ccc(C(=O)N2CCCC2)cc1
IC50: > 100 µM (inactive)
IC50 [1]: > 100 µM
IC90 [2]: > 100 µM
IC90 [3]: > 100 µM

CCC(C)C(NC(N)=O)C(=O)Nc1ccc(OCc2ccccc2)cc1 (stereo unspecified)
IC50: > 100 µM (inactive)
IC50 [1]: > 100 µM
IC90 [2]: > 100 µM
IC90 [3]: > 100 µM

CCOc1ccc(NC(=O)/C(C#N)=C/c2cn(CC(=O)O)c3ccccc23)cc1
IC50: 95.9 µM (inactive)
IC50 [1]: > 100 µM
IC90 [2]: > 100 µM
IC90 [3]: > 100 µM

O=C1c2ccccc2N2C(=O)c3ccccc3C2N1O (stereo unspecified)
IC50: 13.9 µM
IC50 [1]: 39.3 µM
IC90 [2]: > 100 µM
IC90 [3]: 56.4 µM

COc1ccc(CNC(=O)c2sc3nc4c(c(C(F)(F)F)c3c2N)CCC4)cc1
IC50: 7.76 µM (inactive)
IC50 [1]: 10.5 µM
IC90 [2]: > 25 µM
IC90 [3]: > 100 µM

CCN(CC)c1ccc(C=N/C(C#N)=C(\N)C#N)cc1
IC50: 16.9 µM
IC50 [1]: > 100 µM
IC90 [2]: > 100 µM
IC90 [3]: > 100 µM

Cc1cc(C(=O)CN2C(=O)NC(C)(CC(C)C)C2=O)c(C)n1-c1ccc2c(c1)OCO2 (stereo unspecified)
IC50: 70 µM (inactive)
IC50 [1]: 74.7 µM
IC90 [2]: 99.9 µM
IC90 [3]: 96.4 µM

O=C(COC(=O)C1CC1)NCc1ccccc1Cl
IC50: 1.37 µM
IC50 [1]: > 100 µM
IC90 [2]: > 100 µM
IC90 [3]: > 100 µM

Cc1ccc(CSc2nccc(-c3c(C)nc4ccccn34)n2)cc1
IC50: 7.91 µM
IC50 [1]: 22.2 µM
IC90 [2]: > 100 µM
IC90 [3]: > 100 µM

CCN(CC(=O)Nc1ccccc1OC)C(=O)c1cc(S(=O)(=O)N2CCCCCC2)ccc1OC
IC50: > 100 µM (inactive)
IC50 [1]: > 100 µM
IC90 [2]: > 100 µM
IC90 [3]: > 100 µM

CCC(=O)NC(=S)Nc1ccc(-c2nc3ccccc3s2)cc1
IC50: > 100 µM (inactive)
IC50 [1]: > 100 µM
IC90 [2]: > 100 µM
IC90 [3]: > 100 µM

Cc1c(C(=O)NCCC2=CCCCC2)sc2ncnc(N3CCCCC3C)c12 (stereo unspecified)
IC50: 47.5 µM (inactive)
IC50 [1]: 65.7 µM
IC90 [2]: > 100 µM
IC90 [3]: 52 µM

N=C1C(c2nc3ccccc3[nH]2)=C(O)CN1c1ccc(F)cc1
IC50: 7.73 µM
IC50 [1]: > 100 µM
IC90 [2]: > 100 µM
IC90 [3]: > 100 µM

COc1ccc(-c2csc(Nc3ncccc3C)n2)cc1OC
IC50: 61.3 µM (inactive)
IC50 [1]: > 100 µM
IC90 [2]: > 100 µM
IC90 [3]: > 100 µM

COc1ccc(-c2csc(-c3cccs3)n2)c(OC)c1
IC50: 67.6 µM (inactive)
IC50 [1]: 68.2 µM
IC90 [2]: > 100 µM
IC90 [3]: > 100 µM

O=C(CCN1C(=O)c2ccccc2S1(=O)=O)Nc1ccc(Cl)cc1
IC50: > 100 µM (inactive)
IC50 [1]: > 100 µM
IC90 [2]: > 100 µM
IC90 [3]: > 100 µM

COC(=O)c1c(C)n(-c2ccccc2)c2ccc(O)cc12
IC50: 1.53 µM
IC50 [1]: > 100 µM
IC90 [2]: > 100 µM
IC90 [3]: > 100 µM

CCOC(=O)c1ccc(-c2ccc(C=O)o2)cc1
IC50: 29.1 µM (inactive)
IC50 [1]: 44.6 µM
IC90 [2]: > 100 µM
IC90 [3]: > 100 µM

Clc1ccc(Cn2cc(/C=N/n3cnnc3)c3ccccc32)cc1
IC50: 46.9 µM (inactive)
IC50 [1]: 49 µM
IC90 [2]: > 50 µM
IC90 [3]: > 100 µM

CCc1cc(C(=O)O)c(NC(=O)/C=C/c2ccc(OC)cc2)s1
IC50: 8.76 µM
IC50 [1]: 21.5 µM
IC90 [2]: > 100 µM
IC90 [3]: 59.7 µM

CC(=O)Nc1ccc(C(=O)N(C2=NC(C)CS2)c2ccc(Cl)cc2)cc1 (stereo unspecified)
IC50: 29.8 µM (inactive)
IC50 [1]: 44.1 µM
IC90 [2]: > 100 µM
IC90 [3]: > 100 µM

CC1(C)CCN2CCC(C)(C)c3c(O)ccc1c32
IC50: 34.7 µM (inactive)
IC50 [1]: 47.1 µM
IC90 [2]: 53 µM
IC90 [3]: 49.3 µM

Nc1c(C(=O)c2cccs2)sc2nsc(SCCN3CCCCC3)c12
IC50: > 100 µM (inactive)
IC50 [1]: > 100 µM
IC90 [2]: > 100 µM
IC90 [3]: > 100 µM

COc1cc(/C=C/C(=O)OCC(=O)Nc2cc(C)c(C)cc2[N+](=O)[O-])ccc1O
IC50: 43 µM (inactive)
IC50 [1]: 92.8 µM
IC90 [2]: > 100 µM
IC90 [3]: > 100 µM

O=C(CC1SC(=O)NC1=O)Oc1ccc(/C=N/NC(=O)c2ccccc2O)cc1 (stereo unspecified)
IC50: 6.41 µM
IC50 [1]: 41.3 µM
IC90 [2]: > 100 µM
IC90 [3]: > 100 µM

O=c1oc(-c2ccco2)nc2sc3c(c12)CCCCC3
IC50: 9.28 µM
IC50 [1]: 67.6 µM
IC90 [2]: 90.2 µM
IC90 [3]: 38.5 µM

COc1cc(C(=O)NC2CCCCC2)ccc1OCc1ccc(Cl)cc1Cl
IC50: > 100 µM (inactive)
IC50 [1]: > 100 µM
IC90 [2]: > 100 µM
IC90 [3]: > 100 µM

CC1(C)CC(CCNC(=O)CCl)(c2ccccc2)CCO1 (stereo unspecified)
IC50: 2.38 µM
IC50 [1]: 9.13 µM
IC90 [2]: 34.7 µM
IC90 [3]: 8.14 µM

COc1cc2c(=O)n(Cc3ccco3)c(=O)n(CC(=O)c3cccc(Br)c3)c2cc1OC
IC50: > 100 µM (inactive)
IC50 [1]: > 100 µM
IC90 [2]: > 100 µM
IC90 [3]: > 100 µM

COc1cccc(NC(=O)C2CC2)c1
IC50: 6.09 µM
IC50 [1]: > 100 µM
IC90 [2]: > 100 µM
IC90 [3]: > 100 µM

CCCCCNCc1cccc(Br)c1
IC50: 48.5 µM (inactive)
IC50 [1]: > 100 µM
IC90 [2]: > 100 µM
IC90 [3]: > 100 µM

CSc1nc2cc3c(cc2n1C(=O)c1ccc(C)cc1)OCCO3
IC50: 5.15 µM
IC50 [1]: > 100 µM
IC90 [2]: > 100 µM
IC90 [3]: > 100 µM

O=C(NC1CCCC1)c1ccccc1OCc1ccccc1
IC50: 5.69 µM
IC50 [1]: 37.6 µM
IC90 [2]: > 100 µM
IC90 [3]: > 100 µM

CCCCCCC(=O)Nc1nc(C)c(-c2csc(Nc3cc(Cl)ccc3OC)n2)s1
IC50: 42.3 µM (inactive)
IC50 [1]: 51.1 µM
IC90 [2]: > 100 µM
IC90 [3]: > 100 µM

O=C1CCNc2c(Cl)cccc21
IC50: > 100 µM (inactive)
IC50 [1]: > 100 µM
IC90 [2]: > 100 µM
IC90 [3]: > 100 µM

CCCCC(=O)NC(=S)Nc1ccc(NC(=O)C(C)C)c(OC)c1
IC50: 99.9 µM (inactive)
IC50 [1]: > 100 µM
IC90 [2]: > 100 µM
IC90 [3]: > 100 µM

C/C(=N\NC(=O)c1ccncc1)c1c(O)n(-c2ccccc2)c(=O)[nH]c1=O
IC50: 2.81 µM (inactive)
IC50 [1]: 5.74 µM
IC90 [2]: > 100 µM
IC90 [3]: 3.94 µM

Cc1cc(C)c(N=Cc2c(O)n(-c3nccs3)c(=O)c3ccccc23)c(C)c1
IC50: > 100 µM (inactive)
IC50 [1]: > 100 µM
IC90 [2]: > 100 µM
IC90 [3]: > 100 µM

O=C(NC1c2ccccc2-c2ccccc21)c1ccco1
IC50: > 100 µM (inactive)
IC50 [1]: > 100 µM
IC90 [2]: > 100 µM
IC90 [3]: > 100 µM

N#Cc1c(NC(=O)CSc2nc(-c3ccco3)cc(C(F)(F)F)n2)sc2c1CCCC2
IC50: > 100 µM (inactive)
IC50 [1]: > 100 µM
IC90 [2]: > 100 µM
IC90 [3]: > 100 µM

Cc1cc(C)c2sc(N(CCCN(C)C)C(=O)COc3ccc(Cl)cc3)nc2c1
IC50: 36.6 µM (inactive)
IC50 [1]: 53.6 µM
IC90 [2]: 80.2 µM
IC90 [3]: > 100 µM

NNC(=O)c1oc2nc(-c3ccco3)cc(-c3ccco3)c2c1N
IC50: 13.6 µM (inactive)
IC50 [1]: 23.9 µM
IC90 [2]: > 100 µM
IC90 [3]: > 100 µM

Cc1c(NC(=O)c2noc3c2CCc2ccccc2-3)c(=O)n(-c2ccccc2)n1C
IC50: 28.3 µM
IC50 [1]: > 100 µM
IC90 [2]: > 100 µM
IC90 [3]: > 50 µM

CCCn1nc(NC(=O)c2ccco2)c2cc3cc(C)ccc3nc21
IC50: > 100 µM (inactive)
IC50 [1]: > 100 µM
IC90 [2]: > 100 µM
IC90 [3]: > 100 µM

Cc1cc(N2CCN(c3ccccc3)CC2)nc2ccccc12
IC50: > 100 µM (inactive)
IC50 [1]: > 100 µM
IC90 [2]: > 100 µM
IC90 [3]: > 100 µM

CCOC(=O)c1nc(N2CCN(C(=O)OCC)CC2)c2c3c(sc2n1)CCCC3
IC50: 39.5 µM (inactive)
IC50 [1]: 60.6 µM
IC90 [2]: 96.6 µM
IC90 [3]: 40.9 µM

CCOC(=O)C1CCN(c2ccc(C(N)=O)cc2[N+](=O)[O-])CC1
IC50: 16.3 µM
IC50 [1]: 55.2 µM
IC90 [2]: > 100 µM
IC90 [3]: > 100 µM

COc1ccccc1N(C)S(=O)(=O)c1ccc(C(=O)OCC(=O)N2CCCCCC2)cc1
IC50: > 50 µM (inactive)
IC50 [1]: > 100 µM
IC90 [2]: > 100 µM
IC90 [3]: > 50 µM

CC(NC(=O)CSc1nc2ccccc2c(=O)[nH]1)c1ccccc1 (stereo unspecified)
IC50: 18.9 µM (inactive)
IC50 [1]: 23.8 µM
IC90 [2]: > 100 µM
IC90 [3]: 60.9 µM

O=C(N/N=C/c1ccc([N+](=O)[O-])o1)c1ccccc1-n1cccc1
IC50: 4.74 µM
IC50 [1]: 13.9 µM
IC90 [2]: 35 µM
IC90 [3]: 29.4 µM

Cc1ccccc1C(=O)Oc1ccccc1N1C(=O)C2CC=CCC2C1=O (stereo unspecified)
IC50: > 100 µM (inactive)
IC50 [1]: > 100 µM
IC90 [2]: > 100 µM
IC90 [3]: > 100 µM

CCOc1cc(CNCCN(C)C)c(Cl)cc1OCC(=O)NCCc1ccccc1
IC50: > 100 µM (inactive)
IC50 [1]: > 100 µM
IC90 [2]: > 100 µM
IC90 [3]: > 100 µM
